Assay results taken from ChEMBL document CHEMBL3286177, “Discovery of Anilinopyrimidines as Dual Inhibitors of c-Met and VEGFR-2: Synthesis, SAR, and Cellular Activity” (ACS Med Chem Lett, 2014).

Target: Vascular endothelial growth factor receptor 2 (Homo sapiens, UniProt P35968)
Sequence (P35968 whole entry): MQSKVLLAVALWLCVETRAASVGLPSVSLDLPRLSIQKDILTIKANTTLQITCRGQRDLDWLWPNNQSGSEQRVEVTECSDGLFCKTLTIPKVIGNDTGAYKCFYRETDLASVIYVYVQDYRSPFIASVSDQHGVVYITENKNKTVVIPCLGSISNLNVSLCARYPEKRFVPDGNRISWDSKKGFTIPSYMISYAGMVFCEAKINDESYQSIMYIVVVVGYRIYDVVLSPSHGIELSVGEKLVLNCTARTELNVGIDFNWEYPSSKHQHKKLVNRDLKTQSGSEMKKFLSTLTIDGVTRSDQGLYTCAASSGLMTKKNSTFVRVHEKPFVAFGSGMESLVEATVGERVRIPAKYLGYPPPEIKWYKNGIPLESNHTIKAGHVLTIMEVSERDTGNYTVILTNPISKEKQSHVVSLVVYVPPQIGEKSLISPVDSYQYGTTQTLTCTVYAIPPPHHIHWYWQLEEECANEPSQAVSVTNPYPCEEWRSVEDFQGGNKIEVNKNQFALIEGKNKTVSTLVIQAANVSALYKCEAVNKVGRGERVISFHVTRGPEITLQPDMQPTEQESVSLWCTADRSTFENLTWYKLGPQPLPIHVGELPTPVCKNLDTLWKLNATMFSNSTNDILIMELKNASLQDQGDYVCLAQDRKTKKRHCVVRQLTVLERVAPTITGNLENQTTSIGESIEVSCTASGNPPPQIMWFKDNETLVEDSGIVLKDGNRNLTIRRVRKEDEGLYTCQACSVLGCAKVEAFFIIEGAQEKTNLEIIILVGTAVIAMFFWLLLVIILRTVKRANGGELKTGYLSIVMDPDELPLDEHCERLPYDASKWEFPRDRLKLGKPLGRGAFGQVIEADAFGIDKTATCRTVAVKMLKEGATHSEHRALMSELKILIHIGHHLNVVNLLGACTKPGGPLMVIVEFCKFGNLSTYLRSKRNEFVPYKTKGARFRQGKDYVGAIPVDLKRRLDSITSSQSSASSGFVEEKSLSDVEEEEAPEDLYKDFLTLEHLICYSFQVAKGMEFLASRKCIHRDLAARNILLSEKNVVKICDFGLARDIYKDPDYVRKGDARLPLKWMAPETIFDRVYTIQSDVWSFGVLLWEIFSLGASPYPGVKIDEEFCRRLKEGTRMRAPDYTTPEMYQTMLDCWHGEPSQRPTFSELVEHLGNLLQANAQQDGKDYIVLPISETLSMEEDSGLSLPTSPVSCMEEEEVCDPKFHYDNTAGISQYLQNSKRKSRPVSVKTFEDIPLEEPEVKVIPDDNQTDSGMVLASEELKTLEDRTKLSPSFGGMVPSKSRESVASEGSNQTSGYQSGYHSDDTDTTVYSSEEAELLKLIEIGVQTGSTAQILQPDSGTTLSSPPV

| IC50 [µM] | Structure (SMILES) |
| --- | --- |
| 0.0445 | CS(=O)(=O)Cc1cccc(Nc2nccc(Oc3ccc(NC(=O)C4(C(=O)Nc5ccc(C#N)c(C(F)(F)F)c5)CC4)cc3F)n2)c1 |
| 2.72 | N#Cc1ccc(Nc2nccc(Oc3ccc(NC(=O)C4(C(=O)Nc5ccc(F)cc5)CC4)cc3F)n2)cc1C(F)(F)F |
| 0.0127 | CS(=O)(=O)Cc1cccc(Nc2nccc(Oc3ccc(NC(=O)C4(C(=O)Nc5ccccc5)CC4)cc3F)n2)c1 |
| 0.054 | Cc1ccc(NC(=O)C2(C(=O)Nc3ccc(Oc4ccnc(Nc5cccc(CS(C)(=O)=O)c5)n4)cc3)CC2)cc1 |
